# Starred links: 1 amine or outer side, 2 acyl side, 3 side chain; linkers in the order of their positions; H or OH if unused. Residues, ends and D or L forms follow the SMILES beside them. *: point of attachment. C18 diacid = O=C(O)CCCCCCCCCCCCCCCCC(=O)*; γGlu = O=C(O)[C@H](CCC(=O)[*:2])N[*:1]
# What was measured:
# [1] = molecular target: T1, human calcitonin receptor (hCTR) (Homo sapiens, UniProt P30988); test: Human calcitonin receptor (hCTR) in vitro potency assay, CRE-luciferase reporter in BHK cells; type: cell-based; conditions: BHK hCTR/CRE-Luc cells, 3 hours incubation, assay buffer with 1% ovalbumin; read-out: hCalcR potency, EC50
# T1 construct: host or cells: BHK (Baby Hamster Kidney), Hollex-1 cell line
# T1 sequence (P30988 25-474): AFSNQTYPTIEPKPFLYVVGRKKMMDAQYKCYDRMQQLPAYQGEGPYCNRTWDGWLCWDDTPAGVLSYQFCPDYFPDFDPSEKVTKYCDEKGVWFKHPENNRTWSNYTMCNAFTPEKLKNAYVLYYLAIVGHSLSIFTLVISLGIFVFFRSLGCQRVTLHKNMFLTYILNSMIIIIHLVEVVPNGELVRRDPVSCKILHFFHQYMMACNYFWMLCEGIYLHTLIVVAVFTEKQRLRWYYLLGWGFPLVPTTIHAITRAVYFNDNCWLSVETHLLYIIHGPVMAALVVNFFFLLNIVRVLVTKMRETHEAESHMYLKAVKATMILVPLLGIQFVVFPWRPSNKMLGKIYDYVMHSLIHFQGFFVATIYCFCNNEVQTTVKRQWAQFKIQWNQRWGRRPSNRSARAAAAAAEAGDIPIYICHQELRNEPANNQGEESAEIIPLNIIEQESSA
# How it was run: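 Luciferase signal from a CRE reporter served as the cAMP read-out after 3 h, 37 °C exposure to compound. Cells were stably transfected BHK expressing hCTR, and the buffer was phenol-red-free DMEM with 10 mM HEPES and 1% ovalbumin. Compounds were tested as 7-point, 7-fold dilutions, often from about 10 nM.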
# [2] = molecular target: T2, human amylin receptor (hAMYR3) (Homo sapiens, UniProt O60896+P30988); test: Human amylin receptor (hAMYR3) in vitro potency assay, CRE-luciferase reporter in BHK cells; type: cell-based; conditions: BHK hAMYR3/CRE-Luc cells, 3 hours incubation, assay buffer with 1% ovalbumin
# T2 construct: host or cells: BHK (Baby Hamster Kidney), Hollex-1 cell line further transfected with RAMP3
# How it was run: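 Luminescence from a CRE-driven luciferase reporter reflects cAMP-mediated receptor activation. Peptides were serially diluted (7 concentrations, 7-fold steps, typically starting near 10 nM) in buffer with 1% ovalbumin and applied for 3 h at 37 °C to BHK cells co-expressing calcitonin receptor (a) and RAMP3.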
# T2 sequence (O60896 24-148, one chain of several): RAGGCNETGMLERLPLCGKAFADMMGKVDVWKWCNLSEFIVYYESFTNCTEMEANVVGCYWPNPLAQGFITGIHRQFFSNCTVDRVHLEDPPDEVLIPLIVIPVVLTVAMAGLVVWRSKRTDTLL
smiles,measurement,setting,value
"CC[C@H](C)[C@H](NC(=O)[C@H](C)NC(=O)CNC(=O)[C@H](Cc1ccccc1)NC(=O)[C@@H]1CCCN1C(=O)[C@H](CCC(=O)O)NC(=O)[C@H](CO)NC(=O)[C@H](CO)NC(=O)[C@H](Cc1c[nH]cn1)NC(=O)[C@H](Cc1c[nH]cn1)NC(=O)[C@H](CC(C)C)NC(=O)[C@H](Cc1ccccc1)NC(=O)[C@H](CCC(=O)O)NC(=O)[C@H](C)NC(=O)[C@H](CC(C)C)NC(=O)[C@H](CCCNC(=N)N)NC(=O)[C@H](CCC(N)=O)NC(=O)[C@@H](NC(=O)[C@H](CCC(N)=O)NC(=O)[C@H](C)NC(=O)[C@@H](NC(=O)[C@H](CO)NC(=O)[C@H](CC(C)C)NC(=O)[C@H](Cc1c[nH]cn1)NC(=O)[C@H](CO)NC(=O)[C@H](C)NC(=O)CC[C@H](NC(=O)CCCCCCCCCCCCCCCCC(=O)O)C(=O)O)[C@@H](C)O)[C@@H](C)O)C(=O)N1CCC[C@H]1C(=O)N[C@@H](CO)C(=O)N[C@@H](CO)C(=O)N[C@H](C(=O)N[C@@H](CCC(=O)O)C(=O)N[C@H](C(=O)NCC(=O)N1CCC[C@H]1C(=O)N[C@@H](CCC(=O)O)C(=O)N[C@H](C(=O)N1CCC[C@H]1C(N)=O)[C@@H](C)O)C(C)C)[C@@H](C)O [Compound 27, N^1-[(4S)-4-carboxy-4-(17-carboxyheptadecanoylamino)butanoyl]-[Ala1,Ser2,His3,Leu4,Ser5,Ala7,Gln8,Glu14,His17,Glu21,Pro22,Pro27,Glu31,Pro34,Glu35,Pro37]-human amylin] ({C18 diacid-γGlu}-ASHLSTAQTQRLAEFLHHSSEPFGAIPSSTEVGPETP-NH2)",EC50,[1],1.78 pM
same,EC50,[2],2.68 pM
"CC[C@H](C)[C@H](NC(=O)[C@@H]1CCCN1C(=O)CNC(=O)[C@H](Cc1ccccc1)NC(=O)[C@H](CC(N)=O)NC(=O)[C@H](CC(=O)O)NC(=O)[C@H](CO)NC(=O)[C@H](CO)NC(=O)[C@H](Cc1c[nH]cn1)NC(=O)[C@H](Cc1c[nH]cn1)NC(=O)[C@H](CC(C)C)NC(=O)[C@H](Cc1ccccc1)NC(=O)[C@H](CCC(=O)O)NC(=O)[C@H](C)NC(=O)[C@H](CC(C)C)NC(=O)[C@H](CCCNC(=N)N)NC(=O)[C@H](CCC(N)=O)NC(=O)[C@@H](NC(=O)[C@H](CCC(N)=O)NC(=O)[C@H](CC(C)C)NC(=O)[C@@H](NC(=O)[C@H](CO)NC(=O)[C@H](CC(C)C)NC(=O)[C@H](Cc1c[nH]cn1)NC(=O)[C@H](CO)NC(=O)[C@H](C)NC(=O)CC[C@H](NC(=O)CCCCCCCCCCCCCCCCC(=O)O)C(=O)O)[C@@H](C)O)[C@@H](C)O)C(=O)N[C@@H](CC(C)C)C(=O)N1CCC[C@H]1C(=O)N1CCC[C@H]1C(=O)N[C@H](C(=O)N[C@@H](CC(=O)O)C(=O)N[C@H](C(=O)NCC(=O)N[C@@H](CO)C(=O)N[C@@H](CC(N)=O)C(=O)N[C@H](C(=O)N1CCC[C@H]1C(N)=O)[C@@H](C)O)C(C)C)[C@@H](C)O [Compound 34, N^1-[(4S)-4-carboxy-4-(17-carboxyheptadecanoylamino)butanoyl]-[Ala1,Ser2,His3,Leu4,Ser5,Leu7,Gln8,Glu14,His17,Asp21,Pro25,Pro28,Pro29,Asp31,Pro37]-human amylin] ({C18 diacid-γGlu}-ASHLSTLQTQRLAEFLHHSSDNFGPILPPTDVGSNTP-NH2)",EC50,[1],2.06 pM
same,EC50,[2],1.91 pM
"CC[C@H](C)[C@H](NC(=O)[C@H](C)NC(=O)CNC(=O)[C@H](Cc1ccccc1)NC(=O)[C@@H]1CCCN1C(=O)[C@H](CC(=O)O)NC(=O)[C@H](CO)NC(=O)[C@H](CO)NC(=O)[C@H](Cc1c[nH]cn1)NC(=O)[C@H](Cc1c[nH]cn1)NC(=O)[C@H](CC(C)C)NC(=O)[C@H](Cc1ccccc1)NC(=O)[C@H](CCC(=O)O)NC(=O)[C@H](C)NC(=O)[C@H](CC(C)C)NC(=O)[C@H](CCCNC(=N)N)NC(=O)[C@H](CCC(N)=O)NC(=O)[C@@H](NC(=O)[C@H](CCC(N)=O)NC(=O)[C@H](C)NC(=O)[C@@H](NC(=O)[C@H](CO)NC(=O)[C@H](CC(C)C)NC(=O)[C@H](Cc1c[nH]cn1)NC(=O)[C@H](CO)NC(=O)[C@H](C)NC(=O)CC[C@H](NC(=O)CCCCCCCCCCCCCCCCC(=O)O)C(=O)O)[C@@H](C)O)[C@@H](C)O)C(=O)N1CCC[C@H]1C(=O)N[C@@H](CO)C(=O)N[C@@H](CO)C(=O)N[C@H](C(=O)N[C@@H](CC(=O)O)C(=O)N[C@H](C(=O)NCC(=O)N1CCC[C@H]1C(=O)N[C@@H](CC(N)=O)C(=O)N[C@H](C(=O)N1CCC[C@H]1C(N)=O)[C@@H](C)O)C(C)C)[C@@H](C)O [Compound 26, N^1-[(4S)-4-carboxy-4-(17-carboxyheptadecanoylamino)butanoyl]-[Ala1,Ser2,His3,Leu4,Ser5,Ala7,Gln8,Glu14,His17,Asp21,Pro22,Pro27,Asp31,Pro34,Pro37]-human amylin] ({C18 diacid-γGlu}-ASHLSTAQTQRLAEFLHHSSDPFGAIPSSTDVGPNTP-NH2)",EC50,[1],2.19 pM
same,EC50,[2],1.31 pM
"CC[C@H](C)[C@H](NC(=O)[C@@H]1CCCN1C(=O)CNC(=O)[C@H](Cc1ccccc1)NC(=O)[C@H](CC(N)=O)NC(=O)[C@H](CC(=O)O)NC(=O)[C@H](CO)NC(=O)[C@H](CO)NC(=O)[C@H](Cc1c[nH]cn1)NC(=O)[C@H](Cc1c[nH]cn1)NC(=O)[C@H](CC(C)C)NC(=O)[C@H](Cc1ccccc1)NC(=O)[C@H](CCC(=O)O)NC(=O)[C@H](C)NC(=O)[C@H](CC(C)C)NC(=O)[C@H](CCCNC(=N)N)NC(=O)[C@H](CCC(N)=O)NC(=O)[C@@H](NC(=O)[C@H](CCC(N)=O)NC(=O)[C@H](C)NC(=O)[C@@H](NC(=O)[C@H](CO)NC(=O)[C@H](CC(C)C)NC(=O)[C@H](Cc1c[nH]cn1)NC(=O)[C@H](CO)NC(=O)[C@H](C)NC(=O)CC[C@H](NC(=O)CCCCCCCCCCCCCCCCC(=O)O)C(=O)O)[C@@H](C)O)[C@@H](C)O)C(=O)N[C@@H](CC(C)C)C(=O)N1CCC[C@H]1C(=O)N1CCC[C@H]1C(=O)N[C@H](C(=O)N[C@@H](CC(=O)O)C(=O)N[C@H](C(=O)NCC(=O)N[C@@H](CO)C(=O)N[C@@H](CC(N)=O)C(=O)N[C@H](C(=O)N1CCC[C@H]1C(N)=O)[C@@H](C)O)C(C)C)[C@@H](C)O [Compound 21, N^1-[(4S)-4-carboxy-4-(17-carboxyheptadecanoylamino)butanoyl]-[Ala1,Ser2,His3,Leu4,Ser5,Ala7,Gln8,Glu14,His17,Asp21,Pro25,Pro28,Pro29,Asp31,Pro37]-human amylin] ({C18 diacid-γGlu}-ASHLSTAQTQRLAEFLHHSSDNFGPILPPTDVGSNTP-NH2)",EC50,[1],1.89 pM
same,EC50,[2],1.64 pM
"CC[C@H](C)[C@H](NC(=O)[C@@H]1CCCN1C(=O)CNC(=O)[C@H](Cc1ccccc1)NC(=O)[C@H](CC(N)=O)NC(=O)[C@H](CC(=O)O)NC(=O)[C@H](CO)NC(=O)[C@H](CO)NC(=O)[C@H](Cc1c[nH]cn1)NC(=O)[C@H](Cc1c[nH]cn1)NC(=O)[C@H](CC(C)C)NC(=O)[C@H](Cc1ccccc1)NC(=O)[C@H](CCC(=O)O)NC(=O)[C@H](C)NC(=O)[C@H](CC(C)C)NC(=O)[C@H](CCCNC(=N)N)NC(=O)[C@H](C)NC(=O)[C@@H](NC(=O)[C@H](CCC(N)=O)NC(=O)[C@H](C)NC(=O)[C@@H](NC(=O)[C@H](CO)NC(=O)[C@H](CC(C)C)NC(=O)[C@H](CO)NC(=O)CNC(=O)[C@H](C)NC(=O)CC[C@H](NC(=O)CCCCCCCCCCCCCCCCC(=O)O)C(=O)O)[C@@H](C)O)[C@@H](C)O)C(=O)N[C@@H](CC(C)C)C(=O)N1CCC[C@H]1C(=O)N1CCC[C@H]1C(=O)N[C@H](C(=O)N[C@@H](CC(=O)O)C(=O)N[C@H](C(=O)NCC(=O)N[C@@H](CO)C(=O)N[C@@H](CC(N)=O)C(=O)N[C@H](C(=O)N1CCC[C@H]1C(N)=O)[C@@H](C)O)C(C)C)[C@@H](C)O [Compound 13, N^1-[(4S)-4-carboxy-4-(17-carboxyheptadecanoylamino)butanoyl]-[Ala1,Gly2,Ser3,Leu4,Ser5,Ala7,Gln8,Ala10,Glu14,His17,Asp21,Pro25,Pro28,Pro29,Asp31,Pro37]-human amylin] ({C18 diacid-γGlu}-AGSLSTAQTARLAEFLHHSSDNFGPILPPTDVGSNTP-NH2)",EC50,[1],1.58 pM
same,EC50,[2],1.36 pM

# From patent US12116388B2, “Amylin receptor agonists” (Novo Nordisk A/S, priority 2022, dated 2024)
